Data taken from patent publication US20230183237A1, “COMPETITIVE AND NONCOMPETITIVE INHIBITORS OF THE MUSCARINIC ACETYLCHOLINE RECEPTOR M5” (Vanderbilt University, priority 2020, published 2023).

These compounds were tested against T1, hM5 (Homo sapiens, UniProt P08912) (assay: Calcium mobilization concentration-response (IC50 vs EC80 acetylcholine), CHO hM5). Settings: CELL LINE hM5; calcium mobilization, EC80 acetylcholine addition; read-out: IC50.
T1 construct: expressed in transfected cells
T1 sequence (P08912 1-532): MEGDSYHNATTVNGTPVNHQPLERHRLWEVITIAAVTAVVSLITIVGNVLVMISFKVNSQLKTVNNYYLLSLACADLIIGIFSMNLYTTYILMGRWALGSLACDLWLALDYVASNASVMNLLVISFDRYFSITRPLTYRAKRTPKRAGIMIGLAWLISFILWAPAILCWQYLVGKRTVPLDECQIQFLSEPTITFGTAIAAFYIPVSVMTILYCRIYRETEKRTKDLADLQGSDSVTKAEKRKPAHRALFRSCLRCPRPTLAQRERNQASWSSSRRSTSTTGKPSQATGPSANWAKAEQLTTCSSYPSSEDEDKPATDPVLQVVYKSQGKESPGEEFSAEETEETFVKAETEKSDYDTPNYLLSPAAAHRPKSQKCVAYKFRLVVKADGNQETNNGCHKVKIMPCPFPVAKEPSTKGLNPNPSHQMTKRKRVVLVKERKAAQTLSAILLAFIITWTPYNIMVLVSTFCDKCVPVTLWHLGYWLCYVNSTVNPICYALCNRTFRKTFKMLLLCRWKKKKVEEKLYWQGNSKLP
Assay type: cell-based
Method in brief: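 CHO cells stably expressing hM5, dye-loaded, in HBSS/20 mM HEPES/2.5 mM probenecid, pH 7.4. Compounds were pre-incubated 140 s before an EC80 acetylcholine challenge, with calcium flux read kinetically.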

Structure (SMILES)	IC50 [µM]
O=S(=O)(c1c(Cl)nc2sccn12)N1CCC(c2cn3ncnc3cc2F)CC1 [Compound 328, 6-chloro-5-((4-(7-fluoro-[1,2,4]triazolo[1,5-a]pyridin-6-yl)piperidin-1-yl)sulfonyl)imidazo[2,1-b]thiazole]	0.327
Cc1c(S(=O)(=O)N2CCC(c3cn4ncnc4cc3F)CC2)c(Cl)nn1C [Compound 329, 6-(1-((3-chloro-1,5-dimethyl-1H-pyrazol-4-yl)sulfonyl)piperidin-4-yl)-7-fluoro-[1,2,4]triazolo[1,5-a]pyridine]	0.087
Cn1ncc(S(=O)(=O)N2CCC(c3cn4ncnc4cc3Cl)CC2)c1C(F)(F)F [Compound 330, 7-chloro-6-(1-((1-methyl-5-(trifluoromethyl)-1H-pyrazol-4-yl)sulfonyl)piperidin-4-yl)-[1,2,4]triazolo[1,5-a]pyridine]	0.052
CCc1cc2ncnn2cc1C1CCN(S(=O)(=O)c2cnn(C)c2C(F)(F)F)CC1 [Compound 331, 7-ethyl-6-(1-((1-methyl-5-(trifluoromethyl)-1H-pyrazol-4-yl)sulfonyl)piperidin-4-yl)-[1,2,4]triazolo[1,5-a]pyridine]	2.6
Cc1c(S(=O)(=O)N2CCC(c3cn4ncnc4cc3-c3ccn(C)n3)CC2)cnn1C [Compound 332, 6-(1-((1,5-dimethyl-1H-pyrazol-4-yl)sulfonyl)piperidin-4-yl)-7-(1-methyl-1H-pyrazol-3-yl)-[1,2,4]triazolo[1,5-a]pyridine]	> 10
Cn1ccc(-c2cc3ncnn3cc2C2CCN(S(=O)(=O)c3cnn4c3CCCC4)CC2)n1 [Compound 333, 7-(1-methyl-1H-pyrazol-3yl)-6-(1-((4,5,6,7-tetrahydropyrazolo[1,5-a]pyridin-3-yl)sulfonyl)piperidin-4-yl)-[1,2,4]triazolo[1,5-a]pyridine]	> 10
CCc1cc2ncnn2cc1C1CCN(S(=O)(=O)c2cnc3ccccn23)CC1 [Compound 334, 7-ethyl-6-(1-(imidazo[1,2-a]pyridin-3-ylsulfonyl)piperidin-4-yl)-[1,2,4]triazolo[1,5-a]pyridine]	0.341
CCc1cc2ncnn2cc1C1CCN(S(=O)(=O)c2cnc3n2CCCC3)CC1 [Compound 335, 7-ethyl-6-(1-((5,6,7,8-tetrahydroimidazo[1,2-a]pyridin-3-yl)sulfonyl)piperidin-4-yl)-[1,2,4]triazolo[1,5-a]pyridine]	0.083
CCc1cc2ncnn2cc1C1CCN(S(=O)(=O)c2c(Cl)nc3sccn23)CC1 [Compound 336, 6-chloro-5-((4-(7-ethyl-[1,2,4]triazolo[1,5-a]pyridin-6-yl)piperidin-1-yl)sulfonyl)imidazo[2,1-b]thiazole]	0.106
CCc1cc2ncnn2cc1C1CCN(S(=O)(=O)c2c(Cl)nn(C)c2C)CC1 [Compound 337, 6-(1-((3-chloro-1,5-dimethyl-1H-pyrazol-4-yl)sulfonyl)piperidin-4-yl)-7-ethyl-[1,2,4]triazolo[1,5-a]pyridine]	0.037
O=S(=O)(c1cnc2ccccn12)N1CCC(c2cn3ncnc3cc2C(F)(F)F)CC1 [Compound 338, 6-(1-(imidazo[1,2-a]pyridin-3-yl)sulfonyl)piperidin-4-yl)-7-(trifluoromethyl_-[1,2,4]triazolo[1,5-a]pyridine]	0.164
O=S(=O)(c1cnc2n1CCCC2)N1CCC(c2cn3ncnc3cc2C(F)(F)F)CC1 [Compound 339, 6-(1-((5,6,7.8-tetrahydroimidazo[1,2-a]pyridin-3-yl)sulfonyl)piperidin-4-yl)-7-(trifluoromethyl)-[1,2,4]triazolo[1,5-a]pyridine]	0.067
O=S(=O)(c1c(Cl)nc2sccn12)N1CCC(c2cn3ncnc3cc2C(F)(F)F)CC1 [Compound 340, 6-chloro-5-((4-(7-(trifluoromethyl)-[1,2,4]triazoto[1,5-a]pyridin-6-yl)piperidin-1-yl)sulfonyl)imidazo[2,1-b]thiazole]	0.173
Cc1c(S(=O)(=O)N2CCC(c3cn4ncnc4cc3C(F)(F)F)CC2)c(Cl)nn1C [Compound 341, 6-(1-((3-chloro-1,5-dimethyl-1H-pyrazol-4-yl)sulfonyl)piperidin-4-yl)-7-(trifluoromethyl)-[1,2,4]triazolo[1,5-a]pyridine]	0.113
O=S(=O)(c1cnc2ccccn12)N1CCC(c2cn3ncnc3cc2Cl)CC1 [Compound 342, 7-chloro-6-(1-(imidazo[1,2-a]pyridin-3-ylsulfonyl)piperidin-4-yl)-[1,2,4]triazolo[1,5-a]pyridine]	0.015
O=S(=O)(c1cnc2n1CCCC2)N1CCC(c2cn3ncnc3cc2Cl)CC1 [Compound 343]	0.012

Structure (SMILES)	IC50 [µM]
O=S(=O)(c1c(Cl)nc2sccn12)N1CCC(c2cn3ncnc3cc2Cl)CC1 [Compound 344, 6-chloro-5-((4-(7-chloro-[1,2,4]triazolo[1,5-a]pyridin-6-yl)piperidin-1-yl)sulfonyl)imidazo[2,1-b]thiazole]	0.018
Cc1c(S(=O)(=O)N2CCC(c3cn4ncnc4cc3C3CC3)CC2)cnn1C [Compound 345, 7-cyclopropyl-6-(1-((1,5-dimethyl-1H-pyrazol-4-yl)sulfonyl)piperidin-4-yl)-[1,2,4]triazolo[1,5-a]pyridine]	0.134
Cc1c(C2CCN(S(=O)(=O)c3cnn(C)c3C(F)(F)F)CC2)cn2ncnc2c1F [Compound 347, 8-fluoro-7-methyl-6-(1-((1-methyl-5-(trifluoromethyl)-1H-pyrazol-4-yl)sulfonyl)piperidin-4-yl)-[1,2,4]triazolo[1,5-a]pyridine]	0.36
Cc1c(C2CCN(S(=O)(=O)c3cnc4ccccn34)CC2)cn2ncnc2c1F [Compound 348, 8-fluoro-6-(1-(imidazo[1,2-a]pyridin-3-ylsulfonyl)piperidin-4-yl)-7-methyl-[1,2,4]triazolo[1,5-a]pyridine]	0.05
Cc1c(C2CCN(S(=O)(=O)c3cnc4n3CCCC4)CC2)cn2ncnc2c1F [Compound 349, 8-fluoro-7-methyl-6-(1-((5,6,7,8-tetrahydroimidazo[1,2-a]pyridin-3-yl)sulfonyl)piperidin-4-yl)-[1,2,4]triazolo[1,5-a]pyridine]	0.017
Cc1c(S(=O)(=O)N2CC=C(c3cc4c(cc3Cl)OCO4)CC2)cnn1C [Compound 350, 4-(6-chlorobenzo[d][1,3]dioxol-5-yl)-1-((1,5-dimethyl-1H-pyrazol-4-yl)sulfonyl)-1,2,3,6-tetrahydropyridine]	0.011
Cn1ncc(S(=O)(=O)N2CC=C(c3cc4c(cc3Cl)OCO4)CC2)c1Cl [Compound 351, 1-((5-chloro-1-methyl-1H-pyrazol-4-yl)sulfonyl)-4-(6-chlorobenzo[d][1,3]dioxol-5-yl)-1,2,3,6-tetrahydropyridine]	0.142
O=S(=O)(c1ccc2c(c1)CCO2)N1CC=C(c2cc3c(cc2Cl)OCO3)CC1 [Compound 352, 4-(6-chlorobenzo[d][1,3]dioxol-5-yl)-1-((2,3-dihydrobenzofuran-5-yl)sulfonyl)-1,2,3,6-tetrahydropyridine]	> 10
CN1CCOc2ccc(S(=O)(=O)N3CC=C(c4cc5c(cc4Cl)OCO5)CC3)cc21 [Compound 353, 6-((4-(6-chlorobenzo[d][1,3]dioxol-5-yl)-3,6-dihydropyridin-1(2H)-yl)sulfonyl)-4-methyl-3,4-dihydro-2H-benzo[b][1,4]oxazine]	> 10
Cc1cc2nccnc2cc1C1=CCN(S(=O)(=O)c2cnn(C)c2C)CC1 [Compound 354, 6-(1((1,5-dimethyl-1H-pyrazol-4-yl)sulfonyl)-1,2,3,6-tetrahydropyridin-4-yl)-7-methylquinoxaline]	0.064
Cc1cc2nccnc2cc1C1=CCN(S(=O)(=O)c2cnn(C)c2Cl)CC1 [Compound 355, 6-(1-((5-chloro-1-methyl-1H-pyrazol-4-yl)sulfonyl)-1,2,3,6-tetrahydropyridin-4-yl)-7-methylquinoxaline]	0.157
Cc1c(S(=O)(=O)N2CCC(c3ccc4c(c3)OCO4)CC2)cnn1C [Compound 356, 4-(benzo[d][1,3]dioxol-5-yl)-1-((1,5-dimethyl-1H-pyrazol-4-yl)sulfonyl)piperidine]	0.306
Cn1ncc(S(=O)(=O)N2CCC(c3ccc4c(c3)OCO4)CC2)c1Cl [Compound 357, 4-(benzo[d][1,3]dioxol-5-yl)-1-((5-chloro-1-methyl-1H-pyrazol-4-yl)sulfonyl)piperidine]	0.384
Cc1ncc(S(=O)(=O)N2CCC(c3ccc4c(c3)OCO4)CC2)n1C [Compound 358, 4-(benzo[d][1,3]dioxol-5-yl)-1-((1,2-dimethyl-1H-imidazol-5-yl)sulfonyl)piperidine]	1.39
O=S(=O)(c1ccc2c(c1)CCO2)N1CCC(c2ccc3c(c2)OCO3)CC1 [Compound 359, 4-(benzo[d][1,3]dioxol-5-yl)-1-((2,3-dihydrobenzofuran-5-yl)sulfonyl)piperidine]	> 10
Cc1nc(C)c(S(=O)(=O)N2CCC(c3cn4ncnc4cc3C)CC2C)s1 (centres unmarked) [Compound 360, 2,4-dimethyl-5-((2-methyl-4-(7-methyl-[1,2,4]triazolo[1,5-a]pyridin-6-yl)piperidin-1-yl)sulfonyl)thiazole]	> 10
